# Results: PubChem BioAssay AID1963962 (Molecular Pharmacology Branch, DTP, NCI, 2024)
# System: 967376-340-R-J2-PDC multicell spheroid viability
# Experiment: Anticancer human tumor 967376-340-R-J2-PDC patient-derived colon adenocarcinoma cell line growth inhibition [PI3K]
# Details: for IC50: curve of first compound; for viability, T/C: stronger effect = lower value
# Text: Combinatorial screen of targeted agents with the PI3K inhibitors inavolisib, alpelisib, duvelisib, and copanlisib in multi-cell type tumor spheroids
# A high-throughput screen of multi-cell type tumor spheroids was designed to identify active combinations of targeted small molecules and PI3K pathway inhibitors. Complex spheroids include a stromal component modeled by human endothelial cells (HUVEC) and fibroblasts modeled by human mesenchymal stem cells (MSCs). The concentration ranges selected for each drug and investigational agent were based upon clinically achievable concentrations if the clinical Cmax of the agent was known.
# Compounds. The drugs and investigational agents: inavolisib (NSC800729), alpelisib (NSC765974), duvelisib (NSC772469), copanlisib (NSC816437), ipatasertib (NSC767898), afuresertib (NSC778305), talazoparib (NSC767125), sapanisertib (NSC764658), selumetinib (NSC741078), tovorafenib (DAY101, NSC766906), vemurafenib (NSC761431), ravoxertinib (NSC781343), sotorasib (NSC818433), MRTX1133 (NSC 836407), abemaciclib (NSC 768073), palbociclib (NSC758247), venetoclax (NSC 766270), SY5609 (NSC837396), enzalutamide (NSC755605), and darolutamide (NSC825331), were obtained from the National Cancer Institute (NCI) Developmental Therapeutics Program Chemical Repository. The FDA-approved anticancer drug set is available from the NCI Developmental Therapeutics Program. […] The stock solutions were prepared in dimethyl sulfoxide (DMSO, Sigma-Aldrich, St. Louis, MO, cat. D2650) at 800-fold the tested concentration and stored at -70 degrees C prior to their use. All drugs and investigational agents were tested over a range starting from a high concentration at or near the clinical Cmax and decreasing in half-log increments. If the clinical Cmax for an agent had not been determined, the highest concentration tested was 10 microM.
# Cell Culture. All cells were maintained in an incubator at 37 degrees C and 5% CO2 with 95% humidity. The PDC lines were cultured according to standard operating procedures established by the NCI PDMR (https://pdmr.cancer.gov/sops/default.htm). All PDCs were thawed and cultured in Matrigel-coated flasks prepared with a working solution of 1X Ham's F-12 nutrient mix, without supplementation (Invitrogen, Waltham, MA, cat. 11765054), 100 U/mL penicillin-streptomycin (Invitrogen, cat. 15140122), and 2.5% Matrigel (Corning Inc., Corning, NY, cat. 354248) for the first three passages. The 354836-022-R-J1-PDC, 475296-252-R-J1-PDC, and 997726-040-R-J2-PDC lines were cultured in 6A media, which includes advanced DMEM/F-12 (Thermo Fisher Scientific, cat. 12634028), 10 mM HEPES (Thermo Fisher Scientific, cat. 15630080), 1X GlutaMAX supplement (Thermo Fisher Scientific, cat. 35050061), 0.1 mg/mL primocin (InvivoGen, San Diego, CA, cat. ant-pm-2), 10% defined fetal bovine serum, heat inactivated (HyClone Laboratories Inc., Logan, UT, cat. SH30070.03HI), 50% L-WRN conditioned media (ATCC, cat. CRL-3276), 1.25 mM N-Acetyl-L-cysteine (Sigma-Aldrich, cat. A9165), 10 mM nicotinamide (Sigma-Aldrich, cat. N0636), 1X B-27 supplement (Thermo Fisher Scientific, cat. 17504044), 1X N-2 supplement (Thermo Fisher Scientific, cat. 17502048), and 10 microM Y-27632 dihydrochloride (Tocris Bioscience, Bristol, United Kingdom, cat. 1254). The 624824-186-R-J2-PDC line was cultured in 6C/Colon 1B media, which includes all 6A media components plus 50 ng/mL human EGF recombinant protein (Thermo Fisher Scientific, cat. PHG0311). […]
# 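Also: spheroids exposed to agents for 7 days before read-out.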
# 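For viability, T/C in this document: luminescence used as surrogate of cell viability.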
structure (smiles),measurement,setting,value
CNC(=O)c1ccc(N2C(=S)N(c3ccc(C#N)c(C(F)(F)F)c3)C(=O)C2(C)C)cc1F + CC(Nc1ccc2c(c1)OCCn1cc(N3C(=O)OCC3C(F)F)nc1-2)C(N)=O,IC50,second compound 0.00316 µM,> 10000 nM
same,IC50,second compound 0.01 µM,> 10000 nM
same,IC50,second compound 0.0316 µM,> 10000 nM
same,IC50,second compound 0.1 µM,> 10000 nM
same,IC50,second compound 0.316 µM,> 10000 nM
same,IC50,second compound 1 µM,> 10000 nM
same,"viability, T/C","second compound 0.00316 µM, first compound 0.0316 µM",90.3%
same,"viability, T/C","second compound 0.00316 µM, first compound 0.1 µM",107%
same,"viability, T/C","second compound 0.00316 µM, first compound 0.316 µM",93.1%
same,"viability, T/C","second compound 0.00316 µM, first compound 1 µM",93.2%
same,"viability, T/C","second compound 0.00316 µM, first compound 3.16 µM",112%
same,"viability, T/C","second compound 0.00316 µM, first compound 10 µM",161%
same,"viability, T/C","second compound 0.01 µM, first compound 0.0316 µM",102%
same,"viability, T/C","second compound 0.01 µM, first compound 0.1 µM",97.8%
same,"viability, T/C","second compound 0.01 µM, first compound 0.316 µM",94.3%
same,"viability, T/C","second compound 0.01 µM, first compound 1 µM",89.5%
same,"viability, T/C","second compound 0.01 µM, first compound 3.16 µM",106%
same,"viability, T/C","second compound 0.01 µM, first compound 10 µM",136%
same,"viability, T/C","second compound 0.0316 µM, first compound 0.0316 µM",83.1%
same,"viability, T/C","second compound 0.0316 µM, first compound 0.1 µM",107%
same,"viability, T/C","second compound 0.0316 µM, first compound 0.316 µM",94.1%
same,"viability, T/C","second compound 0.0316 µM, first compound 1 µM",76.7%
same,"viability, T/C","second compound 0.0316 µM, first compound 3.16 µM",100%
same,"viability, T/C","second compound 0.0316 µM, first compound 10 µM",99.5%
same,"viability, T/C","second compound 0.1 µM, first compound 0.0316 µM",72.4%
same,"viability, T/C","second compound 0.1 µM, first compound 0.1 µM",73.1%
same,"viability, T/C","second compound 0.1 µM, first compound 0.316 µM",73.5%
same,"viability, T/C","second compound 0.1 µM, first compound 1 µM",81.1%
same,"viability, T/C","second compound 0.1 µM, first compound 3.16 µM",77.4%
same,"viability, T/C","second compound 0.1 µM, first compound 10 µM",81%
same,"viability, T/C","second compound 0.316 µM, first compound 0.0316 µM",60.4%
same,"viability, T/C","second compound 0.316 µM, first compound 0.1 µM",60.6%
same,"viability, T/C","second compound 0.316 µM, first compound 0.316 µM",72.5%
same,"viability, T/C","second compound 0.316 µM, first compound 1 µM",66.5%
same,"viability, T/C","second compound 0.316 µM, first compound 3.16 µM",62.1%
same,"viability, T/C","second compound 0.316 µM, first compound 10 µM",67.5%
same,"viability, T/C","second compound 1 µM, first compound 0.0316 µM",57.3%
same,"viability, T/C","second compound 1 µM, first compound 0.1 µM",66%
same,"viability, T/C","second compound 1 µM, first compound 0.316 µM",62.7%
same,"viability, T/C","second compound 1 µM, first compound 1 µM",60.8%
same,"viability, T/C","second compound 1 µM, first compound 3.16 µM",61.6%
same,"viability, T/C","second compound 1 µM, first compound 10 µM",67.5%
Cn1cnc2c(F)c(Nc3ccc(Br)cc3Cl)c(C(=O)NOCCO)cc21 + CC(Nc1ccc2c(c1)OCCn1cc(N3C(=O)OCC3C(F)F)nc1-2)C(N)=O,IC50,second compound 0.00316 µM,870 nM
same,IC50,second compound 0.01 µM,564 nM
same,IC50,second compound 0.0316 µM,461 nM
same,IC50,second compound 0.1 µM,301 nM
same,IC50,second compound 0.316 µM,15.7 nM
same,IC50,second compound 1 µM,< 9.49 nM
same,"viability, T/C","second compound 0.00316 µM, first compound 0.00949 µM",91.2%
same,"viability, T/C","second compound 0.00316 µM, first compound 0.03 µM",92.1%
same,"viability, T/C","second compound 0.00316 µM, first compound 0.0949 µM",92.5%
same,"viability, T/C","second compound 0.00316 µM, first compound 0.3 µM",67.9%
same,"viability, T/C","second compound 0.00316 µM, first compound 0.949 µM",50.5%
same,"viability, T/C","second compound 0.00316 µM, first compound 3 µM",22.7%
same,"viability, T/C","second compound 0.01 µM, first compound 0.00949 µM",96%
same,"viability, T/C","second compound 0.01 µM, first compound 0.03 µM",94%
same,"viability, T/C","second compound 0.01 µM, first compound 0.0949 µM",82.2%
same,"viability, T/C","second compound 0.01 µM, first compound 0.3 µM",72.2%
same,"viability, T/C","second compound 0.01 µM, first compound 0.949 µM",30.3%
same,"viability, T/C","second compound 0.01 µM, first compound 3 µM",31.6%
same,"viability, T/C","second compound 0.0316 µM, first compound 0.00949 µM",81.8%
same,"viability, T/C","second compound 0.0316 µM, first compound 0.03 µM",83.2%
same,"viability, T/C","second compound 0.0316 µM, first compound 0.0949 µM",58.3%
same,"viability, T/C","second compound 0.0316 µM, first compound 0.3 µM",55.5%
same,"viability, T/C","second compound 0.0316 µM, first compound 0.949 µM",46.6%
same,"viability, T/C","second compound 0.0316 µM, first compound 3 µM",20.1%
same,"viability, T/C","second compound 0.1 µM, first compound 0.00949 µM",66.2%
same,"viability, T/C","second compound 0.1 µM, first compound 0.03 µM",70.8%
same,"viability, T/C","second compound 0.1 µM, first compound 0.0949 µM",67.8%
same,"viability, T/C","second compound 0.1 µM, first compound 0.3 µM",49.5%
same,"viability, T/C","second compound 0.1 µM, first compound 0.949 µM",18.7%
same,"viability, T/C","second compound 0.1 µM, first compound 3 µM",8.2%
same,"viability, T/C","second compound 0.316 µM, first compound 0.00949 µM",48.2%
same,"viability, T/C","second compound 0.316 µM, first compound 0.03 µM",52.4%
same,"viability, T/C","second compound 0.316 µM, first compound 0.0949 µM",44.1%
same,"viability, T/C","second compound 0.316 µM, first compound 0.3 µM",27.8%
same,"viability, T/C","second compound 0.316 µM, first compound 0.949 µM",23.7%
same,"viability, T/C","second compound 0.316 µM, first compound 3 µM",6.33%
same,"viability, T/C","second compound 1 µM, first compound 0.00949 µM",45.7%
same,"viability, T/C","second compound 1 µM, first compound 0.03 µM",51%
same,"viability, T/C","second compound 1 µM, first compound 0.0949 µM",31.3%
same,"viability, T/C","second compound 1 µM, first compound 0.3 µM",24.6%
same,"viability, T/C","second compound 1 µM, first compound 0.949 µM",9.79%
same,"viability, T/C","second compound 1 µM, first compound 3 µM",4.86%
